ChEMBL document CHEMBL4411284, “Discovery of novel quaternary ammonium compounds based on quinuclidine-3-ol as new potential antimicrobial candidates” (Eur J Med Chem, 2019)
Calls of active or inactive are those of the source. No cut-off for these calls is given here.

Experiments:
Escherichia coli [1] = test: Antimicrobial activity against Escherichia coli ATCC 25922 after 24 to 48 hrs by broth microdilution assay; type: functional
Staphylococcus aureus [2] = test: Bactericidal activity against Staphylococcus aureus ATCC 29213 preincubated for 24 to 48 hrs followed by replating on MHA plates and measured after 18 hrs by broth microdilution assay; type: functional
Staphylococcus aureus [3] = test: Induction of morphological changes in Staphylococcus aureus ATCC 29213 assessed as cell wall damage at MIC after 1 hr by atomic force microscopic analysis; type: functional, organism-based
Escherichia coli [4] = test: Bactericidal activity against Escherichia coli ATCC 25922 preincubated for 24 to 48 hrs followed by replating on MHA plates and measured after 18 hrs by broth microdilution assay; type: functional
Staphylococcus aureus [5] = test: Antimicrobial activity against Staphylococcus aureus ATCC 29213 after 24 to 48 hrs by broth microdilution assay; type: functional
HeLa = test: Cytotoxicity against human HeLa cells assessed as reduction in cell viability after 48 hrs by MTS assay; type: cell-based
HEK293 = test: Cytotoxicity against HEK293 cells assessed as reduction in cell viability after 48 hrs by MTS assay; type: cell-based; conditions: Homo sapiens, HEK293, 48 h
Streptococcus pyogenes [6] = test: Bactericidal activity against Streptococcus pyogenes ATCC 19615 preincubated for 24 to 48 hrs followed by replating on MHA plates and measured after 18 hrs by broth microdilution assay; type: functional
Candida albicans = test: Antifungal activity against Candida albicans ATCC 90029 after 24 to 48 hrs by broth microdilution assay; type: functional
Listeria monocytogenes [7] = test: Antimicrobial activity against Listeria monocytogenes ATCC 19111 (1/2a) after 24 to 48 hrs by broth microdilution assay; type: functional
Acinetobacter baumannii [8] = test: Bactericidal activity against Acinetobacter baumannii ATCC 19606 preincubated for 24 to 48 hrs followed by replating on MHA plates and measured after 18 hrs by broth microdilution assay; type: functional; conditions: ATCC 19606 = CIP 70.34 = JCM 6841
Enterococcus faecalis [9] = test: Antimicrobial activity against Enterococcus faecalis ATCC 29212 after 24 to 48 hrs by broth microdilution assay; type: functional
Acinetobacter baumannii [10] = test: Antimicrobial activity against Acinetobacter baumannii clinical isolate after 24 to 48 hrs by broth microdilution assay; type: functional
Penicillium citrinum = test: Antifungal activity against Penicillium citrinum after 24 to 48 hrs by broth microdilution assay; type: functional
Pseudomonas aeruginosa [11] = test: Bactericidal activity against Pseudomonas aeruginosa ATCC 27853 preincubated for 24 to 48 hrs followed by replating on MHA plates and measured after 18 hrs by broth microdilution assay; type: functional
Enterococcus faecalis [12] = test: Bactericidal activity against Enterococcus faecalis ATCC 29212 preincubated for 24 to 48 hrs followed by replating on MHA plates and measured after 18 hrs by broth microdilution assay; type: functional
Staphylococcus aureus [13] = test: Antimicrobial activity against methicillin-resistant Staphylococcus aureus clinical isolate after 24 to 48 hrs by broth microdilution assay; type: functional
Klebsiella pneumoniae [14] = test: Antimicrobial activity against Klebsiella pneumoniae ATCC 13883 after 24 to 48 hrs by broth microdilution assay; type: functional
Pseudomonas aeruginosa [15] = test: Antimicrobial activity against Pseudomonas aeruginosa ATCC 27853 after 24 to 48 hrs by broth microdilution assay; type: functional
Acinetobacter baumannii [16] = test: Bactericidal activity against Acinetobacter baumannii clinical isolate preincubated for 24 to 48 hrs followed by replating on MHA plates and measured after 18 hrs by broth microdilution assay; type: functional
Escherichia coli [17] = test: Bactericidal activity against Escherichia coli clinical isolate preincubated for 24 to 48 hrs followed by replating on MHA plates and measured after 18 hrs by broth microdilution assay; type: functional
Streptococcus pyogenes [18] = test: Antimicrobial activity against Streptococcus pyogenes ATCC 19615 after 24 to 48 hrs by broth microdilution assay; type: functional
Staphylococcus aureus [19] = test: Bactericidal activity against methicillin-resistant Staphylococcus aureus clinical isolate preincubated for 24 to 48 hrs followed by replating on MHA plates and measured after 18 hrs by broth microdilution assay; type: functional
Klebsiella pneumoniae [20] = test: Bactericidal activity against Klebsiella pneumoniae clinical isolate preincubated for 24 to 48 hrs followed by replating on MHA plates and measured after 18 hrs by broth microdilution assay; type: functional
Aspergillus niger = test: Antifungal activity against Aspergillus niger after 24 to 48 hrs by broth microdilution assay; type: functional
Salmonella typhimurium [21] = test: Antimicrobial activity against Salmonella typhimurium WDCM 00031 after 24 to 48 hrs by broth microdilution assay; type: functional, Salmonella enterica subsp. enterica serovar Typhimurium; conditions: Salmonella enterica
Salmonella typhimurium [22] = test: Bactericidal activity against Salmonella typhimurium WDCM 00031 preincubated for 24 to 48 hrs followed by replating on MHA plates and measured after 18 hrs by broth microdilution assay; type: functional, Salmonella enterica subsp. enterica serovar Typhimurium; conditions: Salmonella enterica
Escherichia coli [23] = test: Antimicrobial activity against Escherichia coli clinical isolate after 24 to 48 hrs by broth microdilution assay; type: functional
Acinetobacter baumannii [24] = test: Antimicrobial activity against Acinetobacter baumannii ATCC 19606 after 24 to 48 hrs by broth microdilution assay; type: functional; conditions: ATCC 19606 = CIP 70.34 = JCM 6841
Listeria monocytogenes [25] = test: Bactericidal activity against Listeria monocytogenes ATCC 19111 (1/2a) preincubated for 24 to 48 hrs followed by replating on MHA plates and measured after 18 hrs by broth microdilution assay; type: functional
Klebsiella pneumoniae [26] = test: Bactericidal activity against Klebsiella pneumoniae ATCC 13883 preincubated for 24 to 48 hrs followed by replating on MHA plates and measured after 18 hrs by broth microdilution assay; type: functional
Klebsiella pneumoniae [27] = test: Antimicrobial activity against Klebsiella pneumoniae clinical isolate after 24 to 48 hrs by broth microdilution assay; type: functional
TERT-RPE1 = test: Cytotoxicity against human RPE1 cells assessed as reduction in cell viability after 48 hrs by MTS assay; type: cell-based; conditions: RPE-1, 48 h

CCCCCCCCCCCC[N+](C)(C)Cc1ccccc1.[Br-]
MIC (Escherichia coli [1]): 3.9 µg/mL
MBC (Staphylococcus aureus [2]): 1.5 µg/mL
Activity (Staphylococcus aureus [3]): Active
MBC (Escherichia coli [4]): 3.9 µg/mL
MIC (Staphylococcus aureus [5]): 1.5 µg/mL
IC50 (HeLa): 3.98 µg/mL
IC50 (HEK293): 1 µg/mL

CCCCCCCCCCCC[N+]12CCC(CC1)C(O)C2.[Br-] (stereo unspecified)
MBC (Streptococcus pyogenes [6]): 0.48 µg/mL
MIC50 (Candida albicans): 1.95 µg/mL
MIC90 (Candida albicans): 3.9 µg/mL
MIC (Listeria monocytogenes [7]): 31.2 µg/mL
MBC (Acinetobacter baumannii [8]): 250 µg/mL
MIC (Enterococcus faecalis [9]): 15.6 µg/mL
MIC (Escherichia coli [1]): 62.5 µg/mL
MIC (Acinetobacter baumannii [10]): 62.5 µg/mL
MBC (Staphylococcus aureus [2]): 15.6 µg/mL
MIC50 (Penicillium citrinum): 31.2 µg/mL
MIC90 (Penicillium citrinum): 62.5 µg/mL
MBC (Pseudomonas aeruginosa [11]): 500 µg/mL
MBC (Enterococcus faecalis [12]): 15.6 µg/mL
MIC (Staphylococcus aureus [13]): 62.5 µg/mL
MIC (Klebsiella pneumoniae [14]): 125 µg/mL
MIC (Pseudomonas aeruginosa [15]): 250 µg/mL
MBC (Acinetobacter baumannii [16]): 125 µg/mL
MBC (Escherichia coli [17]): 62.5 µg/mL
MIC (Streptococcus pyogenes [18]): 0.48 µg/mL
MBC (Staphylococcus aureus [19]): 62.5 µg/mL
MBC (Klebsiella pneumoniae [20]): 250 µg/mL
MIC50 (Aspergillus niger): 7.8 µg/mL
MIC90 (Aspergillus niger): 15.6 µg/mL
MIC (Salmonella typhimurium [21]): 250 µg/mL
MBC (Escherichia coli [4]): 62.5 µg/mL
MBC (Salmonella typhimurium [22]): 250 µg/mL
MIC (Escherichia coli [23]): 62.5 µg/mL
MIC (Acinetobacter baumannii [24]): 125 µg/mL
MIC (Staphylococcus aureus [5]): 15.6 µg/mL
MBC (Listeria monocytogenes [25]): 31.2 µg/mL
MBC (Klebsiella pneumoniae [26]): 125 µg/mL
MIC (Klebsiella pneumoniae [27]): 250 µg/mL
IC50 (HEK293): 1 µg/mL
IC50 (TERT-RPE1): 8 µg/mL
